# According to patent publication US20190381017A1, “Compositions Comprising Serdexmethylphenidate Conjugates And Methods Of Use Thereof” (KemPharm, Inc., priority 2018, published 2019):
# Tested on: healthy, nondependent, recreational stimulant users
# Test: Oral abuse potential, VAS pharmacodynamic scores (Example 4)
# Conditions: for Drug Liking Emax (mean) / Drug Liking Emax (median) / Feeling Alert/Drowsy Emax (mean) / Feeling Alert/Drowsy Emax (median) / Overall Drug Liking Emax (mean) / Overall Drug Liking Emax (median) / Take Drug Again Emax (mean) / Take Drug Again Emax (median): bipolar VAS; for Any Effects Emax (mean) / Any Effects Emax (median) / Bad Effects Emax (mean) / Bad Effects Emax (median) / Feeling High Emax (mean) / Feeling High Emax (median) / Good Effects Emax (mean) / Good Effects Emax (median): unipolar VAS
# [1] = SDX Cl 120 mg, Focalin XR 80 mg, phentermine HCl 60 mg
structure (smiles),measurement,setting,value
COC(=O)[C@H](c1ccccc1)[C@H]1CCCCN1C(=O)OC[n+]1cccc(C(=O)N[C@@H](CO)C(=O)O)c1.[Cl-] [serdexmethylphenidate chloride],Mean difference Bad Effects Emax vs placebo,"SDX Cl 120 mg, Focalin XR 80 mg",1.3
same,Mean difference Any Effects Emax vs placebo,[1],11.0
same,Mean difference Drug Liking Emax vs placebo,[1],6.8
same,Mean difference Feeling Alert/Drowsy Emax vs placebo,[1],7.7
same,Mean difference Feeling High Emax vs placebo,[1],10.4
same,Mean difference Good Effects Emax vs placebo,[1],12.1
same,Mean difference Overall Drug Liking Emax vs placebo,[1],3.8
same,Mean difference Take Drug Again Emax vs placebo,[1],2.2
same,Drug Liking Emax (mean),[1],62.8
same,Drug Liking Emax (median),[1],53.0
same,Feeling Alert/Drowsy Emax (mean),[1],64.4
same,Feeling Alert/Drowsy Emax (median),[1],54.0
same,Overall Drug Liking Emax (mean),[1],58.5
same,Overall Drug Liking Emax (median),[1],50.0
same,Take Drug Again Emax (mean),[1],57.4
same,Take Drug Again Emax (median),[1],50.0
same,Any Effects Emax (mean),[1],28.8
same,Any Effects Emax (median),[1],14.0
same,Bad Effects Emax (mean),[1],6.04
same,Bad Effects Emax (median),[1],0.0
same,Feeling High Emax (mean),[1],25.6
same,Feeling High Emax (median),[1],7.0
same,Good Effects Emax (mean),[1],27.0
same,Good Effects Emax (median),[1],10.0
same,Mean difference Any Effects Emax vs placebo,SDX Cl 240 mg,20.5
same,Mean difference Bad Effects Emax vs placebo,SDX Cl 240 mg,8.6
same,Mean difference Drug Liking Emax vs placebo,SDX Cl 240 mg,8.3
same,Mean difference Feeling Alert/Drowsy Emax vs placebo,SDX Cl 240 mg,11.2
same,Mean difference Feeling High Emax vs placebo,SDX Cl 240 mg,18.8
same,Mean difference Good Effects Emax vs placebo,SDX Cl 240 mg,17.4
same,Mean difference Overall Drug Liking Emax vs placebo,SDX Cl 240 mg,3.3
same,Mean difference Take Drug Again Emax vs placebo,SDX Cl 240 mg,1.7
same,Drug Liking Emax (mean),SDX Cl 240 mg,63.8
same,Drug Liking Emax (median),SDX Cl 240 mg,59.0
same,Feeling Alert/Drowsy Emax (mean),SDX Cl 240 mg,67.4
same,Feeling Alert/Drowsy Emax (median),SDX Cl 240 mg,64.0
same,Overall Drug Liking Emax (mean),SDX Cl 240 mg,58.0
same,Overall Drug Liking Emax (median),SDX Cl 240 mg,51.0
same,Take Drug Again Emax (mean),SDX Cl 240 mg,56.9
same,Take Drug Again Emax (median),SDX Cl 240 mg,50.0
same,Any Effects Emax (mean),SDX Cl 240 mg,37.0
same,Any Effects Emax (median),SDX Cl 240 mg,23.0
same,Bad Effects Emax (mean),SDX Cl 240 mg,13.4
same,Bad Effects Emax (median),SDX Cl 240 mg,0.0
same,Feeling High Emax (mean),SDX Cl 240 mg,32.1
same,Feeling High Emax (median),SDX Cl 240 mg,19.0
same,Good Effects Emax (mean),SDX Cl 240 mg,30.8
same,Good Effects Emax (median),SDX Cl 240 mg,15.0
